Experimental data from patent US12227500B2, “Substituted pyrrolo[2,3-b]pyridines for suppressing toxic endoplasmic reticulum stress” (THE TRUSTEES OF COLUMBIA UNIVERSITY IN THE CITY OF NEW YORK, priority 2018, dated 2025).
Read-outs that look alike come from different tables or passages of the source.

What was measured:
[1] = in vitro; details: CD-1, mouse, liver microsomes, pH 7.4
Protocol: To test the metabolic stability of the analogs, an in vitro microsomal stability assay was carried out.
The microsomal stability assay was performed in 96-well format (Perkin-Elmer, StorPlate-96U, PP, 96 well, round bottom). […] A stock solution of the compound to be analyzed (0.8 μL. 5 mM) or ethoxycoumarin (positive control, 0.8 μL, 5 mM) was added and the mixture was warmed to 37° C. for 5 minutes. The mouse microsomes (CD-1, 5 μL, thawed in a 37° C. water bath before use, 20 mg/mL, Life Technologies) were added. At selected time points (0, 15, 30, 45, 60 and 120 minutes) aliquots (15 μL) were withdrawn from the plate and quenched upon addition to cold acetonitrile (60 μL), containing an internal standard (5 μM) in a 96-well plate. The samples were centrifuged at 13,000 rpm for 10 minutes at 4° C. The supernatant (40 μL) was withdrawn and transferred to a sample vial with insert. The samples were analyzed by LC-MS.
LC-MS analysis was performed on a platform comprising a Thermo Scientific Dionex Ultimate 3000 and a Bruker amaZon SL equipped with an electrospray ionization source controlled by Bruker Hystar 3.2. […] The flow rate was maintained at 400 μL/min. The initial flow conditions were 60% solvent A (water containing 0.1% acetic acid) and 40% solvent B (methanol containing 0.1% acetic acid).
Aliquots were taken over the course of two hours and analyzed by HPLG-MS using an internal standard to assess compound stability over time.

[2] = target: T1, panel of 60 human kinases (Homo sapiens, UniProt Q13164); assay: Radiolabeled ATP kinase assay, panel of 60 kinases (Table S5); type: biochemical; details: 0.1 μM, 10 μM ATP, read-out: % Enzyme Activity (relative to DSMO controls)
T1 construct: purchased Reaction Biology Corp
T1 sequence (Q13164 whole entry): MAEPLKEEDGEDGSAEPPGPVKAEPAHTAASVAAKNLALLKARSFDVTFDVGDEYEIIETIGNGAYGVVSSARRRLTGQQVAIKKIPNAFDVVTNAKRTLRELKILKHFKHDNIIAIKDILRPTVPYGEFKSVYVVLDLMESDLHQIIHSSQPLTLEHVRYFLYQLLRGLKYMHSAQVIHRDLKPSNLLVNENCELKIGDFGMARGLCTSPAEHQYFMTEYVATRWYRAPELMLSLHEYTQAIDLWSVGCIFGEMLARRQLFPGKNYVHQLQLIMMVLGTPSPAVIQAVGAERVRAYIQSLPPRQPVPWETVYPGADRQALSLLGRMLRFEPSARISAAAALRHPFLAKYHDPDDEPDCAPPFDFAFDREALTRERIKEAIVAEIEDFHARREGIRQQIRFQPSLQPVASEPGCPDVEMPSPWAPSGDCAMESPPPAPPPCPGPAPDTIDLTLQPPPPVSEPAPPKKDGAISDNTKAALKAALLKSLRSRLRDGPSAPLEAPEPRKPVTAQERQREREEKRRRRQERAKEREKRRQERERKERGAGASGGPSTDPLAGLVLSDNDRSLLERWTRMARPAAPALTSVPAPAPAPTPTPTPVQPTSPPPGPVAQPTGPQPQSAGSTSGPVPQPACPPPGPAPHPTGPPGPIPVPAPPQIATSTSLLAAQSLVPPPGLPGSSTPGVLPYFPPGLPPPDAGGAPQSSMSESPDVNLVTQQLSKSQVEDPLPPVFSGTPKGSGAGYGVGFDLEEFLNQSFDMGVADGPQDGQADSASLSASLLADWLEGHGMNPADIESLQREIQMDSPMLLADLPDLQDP
In short: (§1)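 Cell-free radiolabeled-ATP kinase assays across a panel of 60 kinases; each compound tested at 0.1 μM and 0.5 μM for inhibition.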

[3] = target: T2, panel of 60 human kinases (Homo sapiens, UniProt Q7L7X3); assay: as above; type: biochemical; details: TAOK1; 0.1 μM; 10 μM ATP; read-out: % Enzyme Activity (relative to DSMO controls)
T2 construct: purchased Reaction Biology Corp
T2 sequence (Q7L7X3 1-1001): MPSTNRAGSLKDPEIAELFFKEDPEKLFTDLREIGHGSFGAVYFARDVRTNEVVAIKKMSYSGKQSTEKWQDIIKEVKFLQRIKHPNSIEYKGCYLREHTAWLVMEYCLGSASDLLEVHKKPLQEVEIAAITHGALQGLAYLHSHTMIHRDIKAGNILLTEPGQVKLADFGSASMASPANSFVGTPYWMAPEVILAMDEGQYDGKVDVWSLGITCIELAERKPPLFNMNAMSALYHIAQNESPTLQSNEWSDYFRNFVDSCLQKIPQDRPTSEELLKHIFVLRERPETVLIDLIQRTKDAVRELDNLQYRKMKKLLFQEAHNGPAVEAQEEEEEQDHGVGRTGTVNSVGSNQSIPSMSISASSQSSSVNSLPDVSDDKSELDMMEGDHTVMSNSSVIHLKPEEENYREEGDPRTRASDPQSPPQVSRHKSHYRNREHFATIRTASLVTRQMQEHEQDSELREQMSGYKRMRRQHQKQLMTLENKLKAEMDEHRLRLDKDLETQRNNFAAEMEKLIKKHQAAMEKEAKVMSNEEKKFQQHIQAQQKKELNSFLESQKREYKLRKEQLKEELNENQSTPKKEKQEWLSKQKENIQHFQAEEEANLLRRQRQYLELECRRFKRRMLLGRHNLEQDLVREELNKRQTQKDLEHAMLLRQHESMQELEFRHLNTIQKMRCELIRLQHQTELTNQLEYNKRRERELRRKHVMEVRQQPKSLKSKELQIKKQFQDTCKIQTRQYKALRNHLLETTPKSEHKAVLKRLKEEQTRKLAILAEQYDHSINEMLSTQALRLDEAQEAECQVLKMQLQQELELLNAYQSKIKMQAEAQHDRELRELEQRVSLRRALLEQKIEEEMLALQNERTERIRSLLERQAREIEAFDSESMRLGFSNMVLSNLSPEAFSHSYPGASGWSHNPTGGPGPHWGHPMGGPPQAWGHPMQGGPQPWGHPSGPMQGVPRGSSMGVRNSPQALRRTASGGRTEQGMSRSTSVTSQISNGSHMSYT
In short: as §1

[4] = target: T3, panel of 60 human kinases (Homo sapiens, UniProt Q9HAZ1); assay: as above; type: biochemical; details: CLK4; 0.1 μM; 10 μM ATP; read-out: % Enzyme Activity (relative to DSMO controls)
T3 construct: purchased Reaction Biology Corp
T3 sequence (Q9HAZ1 whole entry): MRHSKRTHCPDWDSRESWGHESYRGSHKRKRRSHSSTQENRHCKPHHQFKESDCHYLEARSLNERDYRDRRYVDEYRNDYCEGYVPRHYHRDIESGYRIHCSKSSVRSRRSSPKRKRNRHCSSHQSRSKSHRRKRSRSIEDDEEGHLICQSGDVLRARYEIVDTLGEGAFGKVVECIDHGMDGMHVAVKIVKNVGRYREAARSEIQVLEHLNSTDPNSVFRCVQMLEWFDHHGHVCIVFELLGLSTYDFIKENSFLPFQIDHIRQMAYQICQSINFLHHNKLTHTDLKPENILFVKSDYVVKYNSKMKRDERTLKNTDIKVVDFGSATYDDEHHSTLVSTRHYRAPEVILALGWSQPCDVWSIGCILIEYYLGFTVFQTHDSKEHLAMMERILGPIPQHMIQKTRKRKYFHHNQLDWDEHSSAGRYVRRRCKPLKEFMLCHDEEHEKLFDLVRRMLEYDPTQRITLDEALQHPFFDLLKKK
In short: as §1

[5] = target: T4, panel of 60 human kinases (Homo sapiens, UniProt Q13627); assay: as above; type: biochemical; details: DYRK/RK1A; 0.1 μM; 10 μM ATP; read-out: % Enzyme Activity (relative to DSMO controls)
T4 construct: purchased Reaction Biology Corp
In short: as §1

[6] = target: T5, panel of 60 human kinases (Homo sapiens, UniProt P35916); assay: as above; type: biochemical; details: FLT4/VEGFR3; 0.1 μM; 10 μM ATP; read-out: % Enzyme Activity (relative to DSMO controls)
T5 construct: purchased Reaction Biology Corp
T5 sequence (P35916 25-1363): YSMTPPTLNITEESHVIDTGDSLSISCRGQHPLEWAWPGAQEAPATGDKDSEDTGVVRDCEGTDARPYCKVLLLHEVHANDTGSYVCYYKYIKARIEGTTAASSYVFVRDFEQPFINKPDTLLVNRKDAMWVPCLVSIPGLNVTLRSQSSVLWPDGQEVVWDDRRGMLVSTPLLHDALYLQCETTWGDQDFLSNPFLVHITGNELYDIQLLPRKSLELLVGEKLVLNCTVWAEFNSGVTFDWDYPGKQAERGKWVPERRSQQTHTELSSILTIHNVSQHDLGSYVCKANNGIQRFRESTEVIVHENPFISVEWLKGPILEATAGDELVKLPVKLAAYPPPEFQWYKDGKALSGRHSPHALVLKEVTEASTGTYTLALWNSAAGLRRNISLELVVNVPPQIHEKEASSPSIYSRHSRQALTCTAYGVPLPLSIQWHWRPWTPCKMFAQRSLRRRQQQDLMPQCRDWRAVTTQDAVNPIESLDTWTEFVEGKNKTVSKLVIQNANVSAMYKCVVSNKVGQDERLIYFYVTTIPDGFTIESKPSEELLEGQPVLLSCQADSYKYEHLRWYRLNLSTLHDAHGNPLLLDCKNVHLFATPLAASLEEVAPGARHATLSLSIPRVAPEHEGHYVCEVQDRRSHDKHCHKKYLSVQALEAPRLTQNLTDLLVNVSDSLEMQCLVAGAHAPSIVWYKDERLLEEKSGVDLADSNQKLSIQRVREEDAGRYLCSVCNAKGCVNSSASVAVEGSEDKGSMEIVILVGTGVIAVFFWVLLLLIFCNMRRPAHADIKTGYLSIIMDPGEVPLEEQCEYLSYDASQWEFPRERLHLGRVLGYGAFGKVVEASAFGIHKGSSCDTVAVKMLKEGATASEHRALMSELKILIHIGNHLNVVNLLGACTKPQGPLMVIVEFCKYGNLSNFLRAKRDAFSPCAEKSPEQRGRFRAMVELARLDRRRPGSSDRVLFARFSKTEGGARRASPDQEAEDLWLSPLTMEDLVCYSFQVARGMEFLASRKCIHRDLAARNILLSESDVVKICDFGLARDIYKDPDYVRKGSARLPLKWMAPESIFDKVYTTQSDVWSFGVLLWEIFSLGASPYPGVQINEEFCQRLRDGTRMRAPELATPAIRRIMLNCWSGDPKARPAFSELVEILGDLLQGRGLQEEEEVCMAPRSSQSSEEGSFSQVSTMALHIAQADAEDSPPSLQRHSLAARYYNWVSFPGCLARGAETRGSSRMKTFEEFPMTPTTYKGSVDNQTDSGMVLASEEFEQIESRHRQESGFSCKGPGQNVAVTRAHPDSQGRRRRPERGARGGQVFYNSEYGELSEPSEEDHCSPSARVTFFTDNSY
In short: as §1

[7] = target: T6, panel of 60 human kinases (Homo sapiens, UniProt Q16288); assay: as above; type: biochemical; details: TRKC; 0.1 μM; 10 μM ATP; read-out: % Enzyme Activity (relative to DSMO controls)
T6 construct: purchased Reaction Biology Corp
T6 sequence (Q16288 32-839): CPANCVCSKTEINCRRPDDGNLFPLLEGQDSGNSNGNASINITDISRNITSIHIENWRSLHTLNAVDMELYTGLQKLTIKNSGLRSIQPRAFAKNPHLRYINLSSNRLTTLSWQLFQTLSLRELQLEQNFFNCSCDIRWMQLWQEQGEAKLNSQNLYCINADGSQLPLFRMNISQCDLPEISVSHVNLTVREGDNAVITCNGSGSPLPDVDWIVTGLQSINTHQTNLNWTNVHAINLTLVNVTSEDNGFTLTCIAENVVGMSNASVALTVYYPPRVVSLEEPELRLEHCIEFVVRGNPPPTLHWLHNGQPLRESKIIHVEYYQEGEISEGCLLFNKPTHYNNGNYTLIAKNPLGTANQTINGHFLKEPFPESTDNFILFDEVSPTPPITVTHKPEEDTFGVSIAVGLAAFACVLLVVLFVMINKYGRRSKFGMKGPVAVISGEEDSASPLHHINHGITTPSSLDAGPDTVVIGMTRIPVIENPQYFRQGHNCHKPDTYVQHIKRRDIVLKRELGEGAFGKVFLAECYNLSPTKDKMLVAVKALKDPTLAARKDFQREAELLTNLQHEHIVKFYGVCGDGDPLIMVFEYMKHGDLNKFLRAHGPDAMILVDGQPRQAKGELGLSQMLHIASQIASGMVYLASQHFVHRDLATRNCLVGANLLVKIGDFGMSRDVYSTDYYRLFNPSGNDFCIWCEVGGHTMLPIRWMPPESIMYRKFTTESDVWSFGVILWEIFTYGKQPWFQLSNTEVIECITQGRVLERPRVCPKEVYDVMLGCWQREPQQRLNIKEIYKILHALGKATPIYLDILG
In short: as §1

Row | Structure (SMILES) | half-life at 20 μM [1] [min] | remaining activity at 0.1 µM ([2]; ERK5/MAPK7 (CD)) [%] | remaining activity at 0.1 µM ([2]; ERK5/MAPK7) [%] | remaining activity at 0.1 µM [3] [%] | remaining activity at 0.1 µM [4] [%] | remaining activity at 0.1 µM [5] [%] | remaining activity at 0.1 µM [6] [%] | remaining activity at 0.1 µM [7] [%]
1 | CN1CCN(Cc2ccc(-c3cnc4[nH]cc(-c5ccc6[nH]ccc6c5)c4c3)cc2)CC1 [Compound 1, 3-(1H-Indol-5-yl)-5-(4-((4-methylpiperazin-1-yl)methyl)phenyl)-1H-pyrrolo[2,3-b]pyridine, reference compound] | 7.8 | 87.5 | 109 | 63.5 | 59.2 | 41 | 34.5 | 6.69
2 | CN1CCN(Cc2ccc(-c3cnc4[nH]cc(-c5ccccc5Cl)c4c3)cc2)CC1 [Compound 7as, 3-(2-Chlorophenyl)-5-(4-((4-methylpiperazin-1-yl)methyl)phenyl)-1H-pyrrolo[2,3-b]pyridine] |  | 51.2 | 107 | 39.3 | 65.7 | 42 | 23.2 | 6.32
3 | OCCN1CCN(Cc2ccc(-c3cnc4[nH]cc(-c5cccc(Cl)c5)c4c3)cc2)CC1 [Compound 12k, 2-(4-(4-(3-(3-Chlorophenyl)-1H-pyrrolo[2,3-b]pyridin-5-yl)benzyl)piperazin-1-yl)ethan-1-ol] | > 120 |  |  |  |  |  |  | 
4 | CN1CCN(Cc2ccc(-c3cnc4[nH]cc(-c5cnn(Cc6ccccc6)c5)c4c3)cc2)CC1 [Compound 7ah, 3-(1-Benzyl-1H-pyrazol-4-yl)-5-(4-((4-methylpiperazin-1-yl)methyl)phenyl)-1H-pyrrolo[2,3-b]pyridine] |  | 52.1 | 105 | 62.1 | 21.8 | 4.52 | 34 | 9.83
5 | CN1CCN(Cc2ccc(-c3cnc4[nH]cc(-c5ccncc5)c4c3)cc2)CC1 [Compound 7n, 5-(4-((4-Methylpiperazin-1-yl)methyl)phenyl)-3-(pyridin-4-yl)-1H-pyrrolo[2,3-b]pyridine] |  | 98.9 | 90.6 | 87.4 | 72.2 | 40.3 | 66 | 25.4
6 | COc1ccccc1-c1c[nH]c2ncc(-c3ccc(CN4CCN(C)CC4)cc3)cc12 [Compound 7at, 3-(2-Methoxyphenyl)-5-(4-((4-methylpiperazin-1-yl)methyl)phenyl)-1H-pyrrolo[2,3-b]pyridine] | > 30 | 92.7 | 108 | 40.5 | 90.4 | 57.4 | 79.8 | 34.8
7 | CN1CCN(Cc2ccc(-c3cnc4[nH]cc(-c5cccc(Cl)c5)c4c3)cc2)CC1 [Compound 7ad, 3-(3-Chlorophenyl)-5-(4-((4-methylpiperazin-1-yl)methyl)phenyl)-1H-pyrrolo[2,3-b]pyridine] | > 30 | 93.9 | 109 | 75.4 | 87.8 | 53.4 | 80.5 | 51.2
8 | CN1CCN(Cc2ccc(-c3cnc4[nH]cc(-c5ccoc5)c4c3)cc2)CC1 [Compound 7w, 3-(Furan-3-yl)-5-(4-((4-methylpiperazin-1-yl)methyl)phenyl)-1H-pyrrolo[2,3-b]pyridine] |  | 96.3 | 108 | 90 | 85.5 | 71.2 | 64.6 | 25.8
9 | CN1CCN(Cc2ccc(-c3cnc4[nH]cc(-c5ccc6c(c5)OCCO6)c4c3)cc2)CC1 [Compound 7d, 3-(2,3-Dihydrobenzo[b][1,4]dioxin-6-yl)-5-(4-((4-methylpiperazin-1-yl)methyl)phenyl)-1H-pyrrolo[2,3-b]pyridine] |  | 87.5 | 96.8 | 37.3 | 21.3 | 3.15 | 39 | 17.7
10 | Cc1nn(C)c(C)c1-c1c[nH]c2ncc(-c3ccc(CN4CCN(C)CC4)cc3)cc12 [Compound 7ai, 5-(4-((4-Methylpiperazin-1-yl)methyl)phenyl)-3-(1,3,5-trimethyl-1H-pyrazol-4-yl)-1H-pyrrolo[2,3-b]pyridine] |  | 86 | 101 | 93.3 | 78.5 | 41.7 | 60.3 | 13.1
